According to EP0908457B1, “3-(1,2-benzisothiazol- and isoxazol-5-Y1)-2,4(1H,3H)-pyrimidinedione or thione and 3-(1,2-benzisothiazol- and isoxazol-5-y1)-4(3H)-pyrimidinone or thione herbicidal agents” (BASF AKTIENGESELLSCHAFT, priority 1997, dated 1999):

Assays:
[1] = tested on: Cyperus serotinus, Rottb.; assay: Preemergence weed control under flooded paddy conditions, CYPSE (Flatsedge); type: in vivo; details: preemergence, rated three to four weeks after treatment; further: meaning of each grade not given here
Cyperus iria = assay: Preemergence weed control under flooded paddy conditions, CYPIR (Rice Flatsedge); type: in vivo; details: preemergence, flooded paddy, rated three to four weeks after treatment; further: meaning of each grade not given here
[2] = tested on: Oryza sativa, (L.) Tebonnet; assay: Rice tolerance to post-transplant applications under flooded paddy conditions (Example 187), ORYSAT (Rice, Tebonnet); details: rated three to four weeks after treatment
[3] = tested on: Monochoria vaginalis, Presl.; assay: Preemergence weed control under flooded paddy conditions, MOOVA (Monochoria); type: in vivo; details: preemergence, flooded paddy, rated three to four weeks after treatment; further: meaning of each grade not given here
Sagittaria pygmaea, L. = assay: Preemergence weed control under flooded paddy conditions, SAGPY (Arrowhead (Pygmaea)); type: in vivo; details: preemergence, flooded paddy, rated three to four weeks after treatment; further: meaning of each grade not given here
[4] = tested on: Echinochloa oryzoides (Ard.) Fritsch.; assay: Preemergence weed control under flooded paddy conditions, ECHORC (Watergrass (Calif.)); type: in vivo; details: preemergence, flooded paddy, rated three to four weeks after treatment; further: meaning of each grade not given here

Row | Structure (SMILES) | herbicidal effect rating, CYPSE ([1]; 0.0313 kg/ha) | herbicidal effect rating, CYPSE ([1]; 0.0625 kg/ha) | herbicidal effect rating, CYPSE ([1]; 0.1250 kg/ha) | herbicidal effect rating, CYPSE ([1]; 0.2500 kg/ha) | herbicidal effect rating, CYPIR (Cyperus iria; 0.0313 kg/ha) | herbicidal effect rating, CYPIR (Cyperus iria; 0.0625 kg/ha) | herbicidal effect rating, CYPIR (Cyperus iria; 0.1250 kg/ha) | herbicidal effect rating, CYPIR (Cyperus iria; 0.2500 kg/ha) | herbicidal effect rating, ORYSAT (rice tolerance) ([2]; 0.0313 kg/ha) | herbicidal effect rating, ORYSAT (rice tolerance) ([2]; 0.0625 kg/ha) | herbicidal effect rating, ORYSAT (rice tolerance) ([2]; 0.1250 kg/ha) | herbicidal effect rating, ORYSAT (rice tolerance) ([2]; 0.2500 kg/ha) | herbicidal effect rating, MOOVA ([3]; 0.0313 kg/ha) | herbicidal effect rating, MOOVA ([3]; 0.0625 kg/ha) | herbicidal effect rating, MOOVA ([3]; 0.1250 kg/ha) | herbicidal effect rating, MOOVA ([3]; 0.2500 kg/ha) | herbicidal effect rating, SAGPY (Sagittaria pygmaea, L.; 0.0313 kg/ha) | herbicidal effect rating, SAGPY (Sagittaria pygmaea, L.; 0.0625 kg/ha) | herbicidal effect rating, SAGPY (Sagittaria pygmaea, L.; 0.1250 kg/ha) | herbicidal effect rating, SAGPY (Sagittaria pygmaea, L.; 0.2500 kg/ha) | also measured
1 | COC(=O)C(C)Oc1ccc(C)cc1-c1nsc2ccc(-n3c(=S)cc(C(F)(F)F)n(C)c3=O)cc12 (stereo not drawn) [Example 33, Methyl 2-{{2-{5-[3,6-dihydro-3-methyl-2-oxo-6-thioxo-4-(trifluoromethyl)-1(2H)-pyrimidinyl]-1,2-benzisothiazol-3-yl}-p-tolyl}oxy}propionate] | 0.0 | 0.0 | 0.0 | 0.0 | 0.0 | 0.0 | 2.0 | 4.0 | 2.0 | 3.0 | 3.0 | 3.5 | 9.0 | 9.0 | 9.0 | 9.0 | 0.0 | 0.0 | 0.0 | 0.0 | herbicidal effect rating, ECHORC ([4]; 0.0313 kg/ha): 7.5; herbicidal effect rating, ECHORC ([4]; 0.0625 kg/ha): 8.5; herbicidal effect rating, ECHORC ([4]; 0.1250 kg/ha): 9.0; herbicidal effect rating, ECHORC ([4]; 0.2500 kg/ha): 9.0
2 | COc1cc(C)c(C)c(C)c1-c1nsc2ccc(-n3c(=O)cc(C(F)(F)F)n(C)c3=O)cc12 [Example 34, 3-[3-(6-Methoxy-2,3,4-trimethylphenyl)-1,2-benzisothiazol-5-yl]-1-methyl-6-(trifluoromethyl)-2,4(1H,3H)-pyrimidinedione] | 0.0 | 0.0 | 0.0 | 0.0 | 0.0 | 0.0 | 0.0 | 0.0 | 0.0 | 0.0 | 0.0 | 0.0 | 0.0 | 0.0 | 0.0 | 0.0 | 0.0 | 0.0 | 0.0 | 0.0 | herbicidal effect rating, ECHORC ([4]; 0.0313 kg/ha): 2.0; herbicidal effect rating, ECHORC ([4]; 0.0625 kg/ha): 2.5; herbicidal effect rating, ECHORC ([4]; 0.1250 kg/ha): 3.5; herbicidal effect rating, ECHORC ([4]; 0.2500 kg/ha): 4.5
3 | COC(=O)COc1ccc(C)cc1-c1nsc2ccc(-n3c(=O)cc(C)n(C)c3=O)cc12 [Example 38, Methyl {{2-[5-(3,6-dihydro-3,4-dimethyl-2,6-dioxo-1(2H)-pyrimidinyl)-1,2-benzisothiazol-3-yl]-p-tolyl}oxy}acetate] | 0.0 | 0.0 | 0.0 | 0.0 | 0.0 | 0.0 | 0.0 | 0.0 | 0.0 | 0.0 | 0.0 | 0.0 | 0.0 | 0.0 | 0.0 | 0.0 | 0.0 | 0.0 | 0.0 | 0.0 | herbicidal effect rating, ECHORC ([4]; 0.0313 kg/ha): 0.0; herbicidal effect rating, ECHORC ([4]; 0.0625 kg/ha): 0.0; herbicidal effect rating, ECHORC ([4]; 0.1250 kg/ha): 1.0; herbicidal effect rating, ECHORC ([4]; 0.2500 kg/ha): 2.0
